The values below come from publication PMC3788796, “The Antimicrobial Domains of Wheat Puroindolines Are Cell-Penetrating Peptides with Possible Intracellular Mechanisms of Action” (PLoS ONE, 2013).

Converted amounts (≈) assume the structure as drawn. “And” between values parts separate entries of the source, which are not always exact repeats. Identical values can stand only once.

One test has as its system E. coli (ATCC 25922). In words: E. coli filamentation assay (in vivo inhibition of DNA synthesis). Type of test: cell-based, Escherichia coli. The conditions noted are these: peptide 2–250 µg/mL, 3 h 37°C, Crystal Violet, light microscopy 1000×; triplicate. As to the method:
The method as described was used to assess if the PIN-based peptides cause filamentation of E. coli cells, indicative of inhibition of in vivo DNA synthesis. E. coli (ATCC 25922) grown to logarithmic phase (OD600 = 0.2) was diluted to OD600 of ∼0.04. 75 µL of this culture was mixed with 25 µL of a peptide solution (to a final peptide concentration of 2–250 µg/mL) and incubated for 3 h at 37°C. 50 µL of the sample was spotted onto a glass slide, air dried, and stained with Crystal Violet for 1 min. Peptide mixed with water was used as negative control, and the Trp-rich AMP indolicidin (ILPWKWPWWPWRR-NH2) was used as a positive control due to its known filamentation effect. All samples were tested in triplicate. The cells were observed by light microscopy (1000×magnification).

Test [1] has as its system plasmid DNA (pBluescript SK+). Put plainly: Gel retardation assay for in vitro DNA binding. As to conditions: 100 ng plasmid DNA in 10 µL MilliQ water, 1 h room temperature, peptide 16–500 µg/mL, post-electrophoresis EtBr staining, triplicate assays; for Peptide concentration inducing gel retardation, Full: complete inhibition of migration. The method, then:
This test assesses any peptide-DNA binding by noting the retardation of the rate of migration of DNA bands through agarose gels. A number of methods were tested. As per Hsu et al., DNA of a plasmid (200 ng) or a commercial molecular weight marker (50 ng) was mixed with a peptide (to final concentrations of 32, 64, 125 or 250 µg/mL) in 15 µL of 10 mM Tris-1 mM EDTA buffer (pH 8.0), incubated at room temperature for 2 min, then electrophoresed in 0.5% or 1.0% agarose gels containing 0.5 µg/mL ethidium bromide (EtBr). Following Park et al., 100 ng plasmid DNA was mixed with a peptide (to different concentrations) in 20 µL binding buffer (5% glycerol, 10 mM Tris-HCl (pH 8.0), 1 mM EDTA, 1 mM DTT, 20 mM KCl, 50 µg/mL BSA), held for 1 h at room temperature, then electrophoresed in EtBr-containing gels. Finally the protocols were modified to eliminate any interference of EtBr in the initial peptide-DNA binding. Plasmid DNA (100 ng) was mixed with a peptide (to final concentrations of 16, 32, 64, 125, 250 or 500 µg/mL) in 10 µL of MilliQ water, held at room temperature for 1 h and electrophoresed, followed by emersion of gels in EtBr solution (0.5 µg/mL) for 30 min before imaging.

Another test relates to S. cerevisiae cells. Put plainly: Propidium iodide uptake by yeast cells. Type of test: cell-based, Saccharomyces cerevisiae. As to conditions: peptide 125 µg/mL, 1 h 30°C in PBS pH 7.4, PI 6 µg/mL 5 min; no-peptide control 5.7; average of 4 fields, two independent experiments. As to the method: S. cerevisiae was grown overnight at 30°C in 100 mL PDB and the cells collected by centrifugation and resuspended in Phosphate Buffered Saline (PBS: 137 mM NaCl, 2.7 mM KCl, 8 mM Na2HPO4, 1.46 mM KH2PO4; pH 7.4) to ∼1.5×10^7 cells/mL (OD600 = 0.6–0.8). 75 µL of the suspension was incubated with 25 µL of stock solutions of PuroA, Pina-M, Pina-W→F, PuroB and indolicidin (to give a final peptide concentration of 64, 125, 250 or 500 µg/mL), or with PBS (for no-peptide controls) for 1 h at 30°C, followed by staining with propidium iodide (PI) as described. PI stock solution (60 µg/mL) was prepared in MilliQ water and stored in dark at −20°C. It was diluted to 12 µg/mL before use, mixed 1∶1 with peptide-treated or untreated yeast cells (to final PI concentration 6 µg/mL), and the samples incubated in the dark for 5 min. A 10 µL aliquot of these was examined using a Nikon Eclipse 50 i fluorescence microscope with 561 nm excitation and 630/22 emission filter, at 400×magnification. The photomicrographs were taken under light and fluorescence for each field. Five randomly selected fields were recorded and scored for each sample.

The next test deals with E. coli cells. As to conditions: data from previous work; cited from earlier work.
The subject of test [2] is Saccharomyces cerevisiae (ATCC 287). In words: MIC of the peptides against yeast cells. Type of test: cell-based. The conditions noted are these: PDB, 96-well two-fold dilution 250 to 2 µg/mL, 0.5–2×10^3 cells/mL, overnight 30°C, growth observed visually. As to the method: Saccharomyces cerevisiae (ATCC 287) was grown in Potato Dextrose Broth (PDB) overnight at 30°C with shaking at 220 rpm. The cultures were vortexed vigorously and the cell suspension adjusted to 1–5×10^6 cells/mL with PDB (McFarland standard 0.5) and then diluted 1∶200 with PDB to a final concentration of 0.5–2×10^3 cells/mL [37]. The MIC assays were carried out in 96-well plates as described previously. Peptides (PuroA, Pina-M, Pina-W→F and PuroB) in 25 µL volumes were added to the first empty well and a two-fold dilution was carried out across each row with a starting peptide concentration of 250 µg/mL and a final one of 2 µg/mL. Test wells were subsequently inoculated with 75 µL yeast cells (0.5–2×10^3 cells/mL) and incubated overnight at 30°C. Negative control (no peptide) and positive control (fungicide Mycobutanil) wells were also prepared. The MIC was defined as the lowest concentration of the peptide required to inhibit fungal growth, observed visually.

The nature of test [3]: Calcein dye leakage from bacteria-mimicking LUVs. The format is biochemical. The conditions noted are these: positive control, 1.0% Triton X100; average of duplicate experiments. As to the method:
(§1) A calcein leakage assay as previously described was performed to determine the effects of PIN-based peptides on the permeability of synthetic large unilamellar vesicles (LUVs), designed to mimic bacterial and mammalian cell membranes. The phospholipids used were DOPC (1,2-dioleoyl-sn-glycero-3-phosphocholine), with zwitterionic head groups and DOPG (1,2-dioleoyl-sn-glycerol-3-[phosphor-rac-(1-glycerol)]), with negatively charged headgroups (Avanti® Polar lipids, Alabaster, USA). These were used to make DOPC:DOPG (1∶3) LUVs to mimic bacterial cell membranes, or DOPC only, to mimic mammalian cell membranes. Calcein-entrapped LUVs were prepared by the extrusion method using an Avanti mini extrusion apparatus (Avanti® Polar Lipids, Alabaster, USA). The DOPC:DOPG (a 1∶3 mixture) or DOPC were dissolved in chloroform (25 mg/mL) and aliquoted into glass test tubes to give a concentration of 2.6 mM when resuspended in 2 mL buffer. Chloroform was evaporated under a stream of N2 and the lipid films were dried overnight under vacuum. The films were then resuspended in 2.0 mL of 70 mM calcein buffer (in 10 mM Tris-HCl, pH 7.4) and incubated at room temperature for 30 minutes. To increase entrapment of the dye, five repeated freeze\thaw cycles were used by placing the vial in liquid N2 and then a warm water bath (37°C). The lipid mixture was then extruded through the mini-extruder 10 times through two stacked 0.1 µm pore-size filters. Free calcein was removed by centrifugation (10, 000×g, 10 min) three times and washing with 10 mM Tris, 100 mM NaCl buffer (pH 7.4). Standards of phosphorus (inorganic P; Pi) were prepared (0.05–1.5 mg/mL) using KH2PO4 and read at 820 nm and a linear standard curve was generated (Figure S1 in File S1). The phospholipid concentration of the vesicle preparations was determined by a total phosphorus assay. The assay reagent was prepared fresh by mixing 1 part of 1% ascorbic acid with 6 parts of 0.42% ammonium molybdate•4H2O in H2SO4 and stored on ice. 7 µL of it was added to 3 µL of vesicle suspensions and incubated for 20 min at 45°C. […] The standard curve of phosphorus standards (Figure S1 in File S1) was used to determine the Pi concentration in a LUV preparation, and this was converted to phospholipid concentration (Table S1 in File S1) to adjust the preparations to the required 10 µM phospholipid concentration prior to peptide treatment.
(§2) The calcein-filled LUVs were diluted with 10 mM Tris, 100 mM NaCl buffer (pH 7.4) to a final phospholipid concentration of 10 µM. The experiments were performed in a Varian Cary Eclipse fluorescence spectrophotometer with excitation and emission wavelengths of 496 nm and 515 nm, slit widths of […] and a PMT detector of 600 V. The peptides (PuroA, Pina-M, Pina-W→F and PuroB) were added to LUVs to a final peptide concentration of 8–125 µg/mL in 100 µL volumes and the fluorescence (F) monitored for 5 min at 60 s intervals. The total calcein fluorescence (FT) was determined by addition of 1.0% Triton X100. The dye leakage was calculated as % Leakage = ((F – F0)/(FT – F0)), F0 being fluorescence of each sample at T = 0.

Test [4] can be described thus: Calcein dye leakage from mammalian-mimicking LUVs. The conditions noted are these: positive control, 1.0% Triton X100; average of duplicate experiments. The format is biochemical. The method, then: as §1, §2

As to `CC[C@H](C)[C@H](N)C(=O)N[C@@H](CC(C)C)C(=O)N1CCC[C@H]1C(=O)N[C@@H](Cc1c[nH]c2ccccc12)C(=O)N[C@@H](CCCCN)C(=O)N[C@@H](Cc1c[nH]c2ccccc12)C(=O)N1CCC[C@H]1C(=O)N[C@@H](Cc1c[nH]c2ccccc12)C(=O)N[C@@H](Cc1c[nH]c2ccccc12)C(=O)N1CCC[C@H]1C(=O)N[C@@H](Cc1c[nH]c2ccccc12)C(=O)N[C@@H](CCCNC(=N)N)C(=O)N[C@@H](CCCNC(=N)N)C(N)=O` [Indolicidin, reference compound], the “Minimum peptide concentration inducing filamentation in E. coli” value in the test on E. coli (ATCC 25922) is 32 ± 0 µg/mL. Moreover, in test [1], the “Peptide concentration inducing gel retardation, Partial” value is 32 ± 0 µg/mL and the “Peptide concentration inducing gel retardation, Full” value came to 64 ± 0 µg/mL. Also, the “Peptide concentration inducing gel retardation, Full” value in test [1] (listed as indolicidin) is listed as 64 µg/mL. Moreover, the “% fluorescent cells (propidium iodide uptake)” value in the test on S. cerevisiae cells stood at 100%. Further, the “MIC against E. coli cells” value in the test with E. coli cells was 32 ± 0 µg/mL (≈ 16.8 µM). In test [2], the “MIC against S. cerevisiae” value turned out to be 125 µg/mL.

Regarding “MPLSWFFPRTWGKR-NH2 [GSP-5D, peptide based on the wheat Grain softness protein-1 (Gsp-1-5D)]”, in test [1], the “Peptide concentration inducing gel retardation, Partial” value turned out to be 32 ± 0 µg/mL; the “Peptide concentration inducing gel retardation, Full” value is 64 µg/mL and 64 ± 0 µg/mL. In addition, the “MIC against E. coli cells” value with E. coli cells was 64 ± 0 µg/mL.

For Triton x100 [reference compound], the “% Calcein leakage from DOPC:DOPG LUVs” value in test [3] was 99.0%. Moreover, the “% Calcein leakage from DOPC LUVs” value in test [4] is listed as 99.0%.
